Our source for the melting point values is a melting point compilation (Tetko et al.; mined from patent text by program, amines drawn as free bases though some values may be those of a salt).

Bounds are passed on as bounds.

As usually defined, the melting point is the temperature, or range, at which the solid turns liquid. `COC(=O)c1[nH]cc(Cc2ccsc2)c1N` showed a melting point of 108 to 110 °C.

In turn, `COc1cc(-c2cnc3[nH]cc(C(=O)C(C)(C)C)c3n2)cc(OC)c1OC` yielded a melting point of 240 to 241 °C.

In turn, `CCCN(C(=O)CBr)c1ccc([N+](=O)[O-])cc1C(=O)c1ccccc1` registered a melting point of 122 °C.

`Cc1cc(C(=O)N2CCCC2)ccc1Br` gave a melting point of 55 to 57 °C.

The compound `O=C/C=C/c1ccc2ccccc2n1` returned a melting point of 85 °C.

In turn, `ClC(Cl)=CCOc1cc(Cl)c(OCc2ccncc2)c(Cl)c1` registered a melting point of 74 °C.

Compound `CCOC(=O)N1CCC(Nc2ccc(C(F)(F)F)c([N+](=O)[O-])c2)CC1` registered a melting point of 127 °C.

Take `CC(=O)OC1CSC(Oc2ccc(C)nc2-c2ccncc2)C(OC(C)=O)C1OC(C)=O` (stereo unspecified): the melting point fell in the range of 140 to 144 °C.

The compound `CC1Cc2c(N=C3OC(=O)C4=C3CCCC4)ccc(Cl)c2O1` (stereo unspecified) returned a melting point of 125 to 127 °C.

The compound `FC(F)(F)c1nc(-c2ccc(OCCCn3ccnc3)cc2)no1` gave a melting point of 73 to 73.5 °C.

On to `COC(=O)C=CC1C(C(=O)OC(C)(C)C)C1(C)C` (stereo unspecified), for which the melting point worked out at 67 °C.

Compound `Nc1cc(SCc2ccccc2)ccc1[N+](=O)[O-]` came in with a melting point of 113 to 115 °C.

`CS(=O)(=O)c1ccc(-c2cnn(-c3ccc(Cl)s3)c(=O)c2-c2ccc(F)cc2)cc1`: the melting point fell in the range of 190 to 192 °C.

As for `CC(=O)Oc1c(C)c(CCC2CC(O)CC(=O)O2)c2c(c1C)CC(C)(C)O2` (stereo unspecified), the melting point lay in the range of 126 to 128 °C.

`CC(C)Cc1ccc(N)cc1C#N` returned a melting point of 68 °C.

`COc1cc2c(cc1OCc1ccccc1)CCN(C(=O)NCCN(C)C1CCCCC1)C2c1ccccc1` (stereo unspecified) had a melting point of 109 to 110 °C.

With `COc1ccc2cc([C@H](C)C(=O)OCC(CO)(CO)[N+](=O)[O-])ccc2c1`, the melting point lay within 124 to 126 °C.

The compound `O=[N+]([O-])c1ccc(Br)cc1-c1cc(-c2ccc(Br)cc2)on1` displayed a melting point of 184 to 185 °C.

In turn, `O=c1ccc(-c2ccc(Cl)c(Cl)c2)nn1CN1CCN(Cn2nc(-c3ccc(Cl)c(Cl)c3)ccc2=O)CC1` displayed a melting point of 234 to 236 °C.

`O=C(c1cc2cc(Br)ccc2o1)C12CC3CC(CC(C3)C1)C2` registered a melting point of 115 to 117 °C.

As to `Cc1cc(Cl)nnc1-c1ccccc1`, the melting point was found to be 122 °C.

In turn, `COc1ccc(-c2nc3cc(F)ccc3s2)cc1OC(=O)c1ccccc1Cl` showed a melting point of 190 °C.

Compound `O=C1Nc2cccc(F)c2C(=O)N2CC=C[C@@H]12` registered a melting point of 238 to 240 °C.

On to `Cc1cc(C2CC2)nc(N)n1`, for which the melting point fell in the range of 113 to 115 °C.

As for `Cc1ccc(N2CCN(Cc3c[nH]c4ncccc34)CC2)nc1`, the melting point lay within 204 to 205 °C.

The compound `Cc1cc(OCCCC#Cc2ccc(OC(F)(F)F)cc2)ccc1OCC(=O)O` yielded a melting point of 125 to 127 °C.

The compound `NC(=O)c1ncn2c(-c3cccc(C(F)(F)F)c3)ccnc12` returned a melting point of 239 to 240 °C.

`CCOC(=O)CN1C(=O)C(NC(=O)c2ccc3ccccc3c2)C(c2ccc(OC)cc2)Sc2ccccc21` (stereo unspecified) came in with a melting point of 183 to 186 °C.

For the compound `O=C(O)C(=O)c1ccc(OCCCNC(=O)c2ccc3ccccc3c2)cc1`, the melting point fell in the range of 169 to 170 °C.

Take `CN(C)Cc1cnc2n1-c1ccc(Br)cc1C(c1ccccn1)=NC2`: the melting point was in the range of 200 to 202 °C.

In turn, `O=C(CNC(=O)c1ccccc1C(=O)O)Nc1ccc(C(=O)C[N+](=O)[O-])c(Cl)c1` gave a melting point of 206 to 209 °C.

With `CCOC(=O)C1=C(C)NC(C)=C(C(=O)OCC)C1c1cc2ccccc2s1`, the melting point lay within 167 to 169 °C.

With `COc1cc2cc(C=O)c(Cl)nc2cc1F`, the melting point was 180 °C.

`CCCCCCCCCCCC(O)CC1COC1=O` (stereo unspecified) gave a melting point of 44.5 to 46 °C.

`Cc1csc(NC(=O)c2ccc(CN3CCN(c4nc(C)cs4)C3=O)cc2)n1`: the melting point is 197 to 198 °C.

In turn, `COc1cc(O)c2c(=O)c3ccccc3n(C)c2c1` displayed a melting point of 162 to 164 °C.

Compound `NCC1Cc2cc(-c3ccccc3)cc(-c3ccc(F)cc3F)c2O1` (stereo unspecified) gave a melting point of 159 to 162 °C.

`CCOC(=O)c1ccc(CCC(=O)CO)cc1`: the melting point was 51 to 52 °C.

`CNCc1ccsc1CC(=O)O` showed a melting point of 181 to 182 °C.

`Nc1ccc(CCCCC(=O)O)nc1` had a melting point of 80 to 82 °C.

`COc1ccc2nc3cc(OC)c(=O)c(Cl)c-3sc2c1` yielded a melting point of 264 °C.

In the case of `O=C(O)c1cc(=O)n(Cc2ccccc2S(=O)(=O)O)[nH]1`, the melting point lay in the range of 223 to 226 °C.

The compound `CC1=Nc2c(C)nn(C)c2C2=NCCN12` showed a melting point of 174 to 177 °C.

Turning to `CC(=O)N(O)C(CS(=O)(=O)c1ccc(-c2cccc(CNC(=O)c3nc4ccccc4c(=O)[nH]3)c2)cc1)C(C)C` (stereo unspecified), the melting point fell in the range of 167 to 169 °C.

`CC(=O)SC(C(=O)c1cccc(F)c1)C(C)C(=O)N1CCC[C@H]1C(=O)O` (stereo partly specified) registered a melting point of 158 to 159 °C.

The compound `CCOC(=O)c1cc2c3cccc(OC)c3ncn2c1` gave a melting point of 154 to 155 °C.

`CCCNC(=O)C1(CCCCO)c2ccccc2-c2ccccc21` returned a melting point of 73 to 75 °C.

For `CC#Cc1ccc(NC(=O)c2ccccc2NCc2ccncc2)cc1`, the melting point is 147 to 155 °C.

Consider `O=C(Nc1cccnc1NCc1ccc(Cl)cc1)c1ccccc1F`, for which the melting point fell in the range of 76 to 78 °C.

Turning to `CCOc1ccc(N)cc1OC`, the melting point is 54 to 56 °C.

Take `CC(C)(C)C(=O)OCC(CCn1cnc2c(=O)[nH]c(N)nc21)COC(=O)C(C)(C)C`: the melting point fell in the range of 225 to 237 °C.

Regarding `O=C(NCCO)C1(c2cccc3nn(Cc4cccc(C(F)(F)F)c4)cc23)C=CC=CN1` (stereo unspecified), the melting point lay in the range of 50 to 51 °C.

`CC(=O)OCC1OC(n2cc(C3=C(c4c[nH]c5ccccc45)C(=O)N(C)C3=O)c3cccnc32)C(OC(C)=O)C(OC(C)=O)C1OC(C)=O` (stereo unspecified) came in with a melting point of 119 to 121 °C.

`COc1ccc2sc(C(N)=O)c(Sc3ccccc3)c2c1`: the melting point lay within 194 to 196 °C.

The compound `COc1ccccc1-n1cnc2cc(N)ccc21` displayed a melting point of 48 to 50 °C.

Compound `Cc1ccccc1Nc1nc(N(C)c2ccccc2)c2cccc(OCCO)c2n1` came in with a melting point of 158 to 160 °C.

The compound `CCC(C)C[C@@H]1O[C@H](CC(=O)Nc2cccc(OC(F)(F)C(=O)O)c2)C(=O)N(CC(C)(C)CO)c2ccc(Cl)cc21` (stereo partly specified) gave a melting point of 119 to 121 °C.

Take `COc1cccc(-c2ccc(C(O)C(F)(F)F)cc2)c1` (stereo unspecified): the melting point stood at 108 °C.

Regarding `COc1ccc(-c2ccc3c(c2)C(=O)NC3=O)c2c1OCCO2`, the melting point lay within 285 to 287 °C.

`CCCCCCC(O)CCCCCCCCCCC(=O)OC` (stereo unspecified) registered a melting point of 58 °C.

As to `CC(C)[C@H](NC1CCCCC1)C(=O)O`, the melting point was above 300 °C.

Regarding `CC(C)(SCc1ccccc1)[C@@H]1C[C@H](CSCc2ccccc2)C(=O)N1CC(=O)O` (relative stereo), the melting point lay in the range of 117 to 118 °C.

In turn, `O=C1SCCN1Cc1ccccc1` returned a melting point of 50 to 51 °C.

In the case of `Cc1ccc(S(=O)(=O)OCC(O)Cc2cccc(C(C)(C)C)c2O)cc1` (stereo unspecified), the melting point lay within 98 to 101 °C.

Compound `CCOC(=O)c1cc2oc3c(n2n1)CCOC3` came in with a melting point of 116 to 118 °C.

`CCOc1cc(C(=CC#N)c2ccc(OC)c(C)c2)ccc1OC` yielded a melting point of 86 to 88 °C.

`O=C1c2ccccc2-c2c1c1ccccc1c(=O)n2CCCCCCCNS(=O)(=O)c1ccc(Br)cc1` came in with a melting point of 160 to 161 °C.

As to `Cc1nc2cccc(S(=O)(=O)n3c(COC(C)(C)C(=O)O)cc4cc(C(F)(F)F)ccc43)c2s1`, the melting point lay within 98 to 100 °C.

The compound `Cc1cc2occc2c(Cl)n1` had a melting point of 64.5 to 66 °C.

Regarding `O=C(O)CC[C@H](NC(=O)c1ccc(CCn2cnc3nccc-3c2O)cc1)C(=O)O`, the melting point was above 230 °C.

Take `CCc1cc(N(C)C(=O)N2CCN(c3cc(OC)cc(OC)c3)CC2)c(OC)nc1C`: the melting point fell in the range of 78 to 79 °C.

`CC(CC(=O)NC(Cc1c[nH]c2ccccc12)C(=O)CCc1cc(C(F)(F)F)cc(C(F)(F)F)c1)c1ccccc1` (stereo unspecified) yielded a melting point of 133 to 137 °C.

For the compound `Nc1nc(=O)n(C2OC(CO)CC2F)cc1F` (stereo unspecified), the melting point fell in the range of 209 to 210 °C.

The compound `C[C@H](NN1C(=O)c2ccccc2S1(=O)=O)C(=O)N[C@@H](Cc1ccccc1)C(=O)O` displayed a melting point of 190 to 193 °C.

Regarding `NC(=O)c1n[nH]c2c(=O)[nH]c3cc(Cl)ccc3c(=O)c12`, the melting point lay within 224 to 225 °C.

As to `CCOC(=O)C1=C2NC=C(C(N)=O)C(=O)N2C(C)CC1` (stereo unspecified), the melting point was 251 °C.

As for `COc1ccc(CN(C)CCCCc2ccc(NC(=O)c3cccc4c(=O)c5ccccc5sc34)cc2)cc1OC`, the melting point came to 156 °C.

In the case of `CNC(=O)NCCSCc1ccccn1`, the melting point was 63 to 66 °C.

In the case of `CC(C)(C)NC(=O)c1ccc(Cl)c(C(F)(F)F)c1`, the melting point is 131 °C.

Consider `CC(OCc1cc2nc(Cl)ccc2n1S(=O)(=O)c1ccccc1)C(=O)O` (stereo unspecified), for which the melting point was found to be 150 °C.

For the compound `O=C(O)C1CC(=O)N(c2ccccc2)N1` (stereo unspecified), the melting point was 197 to 199 °C.

As for `Clc1cc(Cl)cc(N=Cc2ccccc2)c1`, the melting point lay in the range of 52 to 53 °C.

Compound `CC(C)n1nc(-c2sc(C(=O)NCc3ccccn3)nc2-c2cccc(Cl)c2)ccc1=O` returned a melting point of 168 to 170 °C.

`O=C(O)C1=Cc2cc(Cl)cc(-c3nc4ccccc4[nH]3)c2OC1C(F)(F)F` (stereo unspecified) yielded a melting point above 300 °C.

Consider `COc1ccc2c(c1)C(=O)C(Cc1cccc(N)c1)C(C)O2` (stereo unspecified), for which the melting point was in the range of 110 to 112 °C.

For `Fc1ccc(C2CC(n3cncn3)c3ccccc3N2)cc1` (stereo unspecified), the melting point was 184 to 186 °C.

Consider `O=C(CCCCOc1ccccc1)C(F)(F)F`, for which the melting point is 50 to 51 °C.

In the case of `CCC(CC)c1ccc(Cl)c2nc3n(c12)CCCCN3c1ccc(C(=O)NC)cc1C`, the melting point was 127 to 128 °C.

In turn, `CC(=O)N(C)S(=O)(=O)c1cc(-n2c(=O)cc(C(F)(F)F)n(C)c2=O)ccc1Cl` registered a melting point of 193 to 195 °C.

`COC(=O)c1cc2c(cc1OC)OCO2` showed a melting point of 74 to 75 °C.

In the case of `CCNc1cccnc1N1CCN(C(=O)c2ccc(C(=O)N(CC)CCO)cc2)CC1`, the melting point was 106 to 108 °C.
